From ChEMBL document CHEMBL6103613 (J Med Chem, 2025)
Converted amounts (≈) assume the structure as drawn.

Tests used:
Type in all cases: functional
Staphylococcus aureus [1] = experiment: Antimicrobial activity against Staphylococcus aureus ATCC 25923 assessed as inhibition of visible bacterial growth incubated for 18 hrs by CLSI based analysis
Staphylococcus aureus [2] = experiment: Antimicrobial activity against methicillin-resistant Staphylococcus aureus ATCC 43300 assessed as inhibition of visible bacterial growth incubated for 18 hrs by CLSI based analysis
Staphylococcus aureus [3] = experiment: Antimicrobial activity against methicillin-resistant Staphylococcus aureus clinical isolate 2 assessed as inhibition of visible bacterial growth incubated for 18 hrs by CLSI based analysis
Staphylococcus aureus [4] = experiment: Antimicrobial activity against methicillin-resistant Staphylococcus aureus clinical isolate 3 assessed as inhibition of visible bacterial growth incubated for 18 hrs by CLSI based analysis
Staphylococcus aureus [5] = experiment: Antimicrobial activity against methicillin-resistant Staphylococcus aureus clinical isolate 4 assessed as inhibition of visible bacterial growth incubated for 18 hrs by CLSI based analysis
Bacillus subtilis = experiment: Antimicrobial activity against Bacillus subtilis ATCC 23875 assessed as inhibition of visible bacterial growth incubated for 18 hrs by CLSI based analysis
Enterococcus faecalis = experiment: Antimicrobial activity against Enterococcus faecalis ATCC 19433 assessed as inhibition of visible bacterial growth incubated for 18 hrs by CLSI based analysis
Enterococcus faecium = experiment: Antimicrobial activity against vancomycin-resistant Enterococcus faecium assessed as inhibition of visible bacterial growth incubated for 18 hrs by CLSI based analysis
Enterococcus gallinarum = experiment: Antimicrobial activity against Enterococcus gallinarum ATCC 49573 assessed as inhibition of visible bacterial growth incubated for 18 hrs by CLSI based analysis
[6] = test system: Staphylococcus epidermidis; experiment: Antimicrobial activity against Staphylococcus epidermidis ATCC 12228 assessed as inhibition of visible bacterial growth incubated for 18 hrs by CLSI based analysis
Staphylococcus aureus [7] = experiment: Antibacterial activity against methicillin-resistant Staphylococcus aureus infected in kunming mouse keratitis model assessed as log reduction in colony count at 5 mg/kg, ip measured upto 8 days; conditions: time <= 8 day
Staphylococcus aureus [8] = experiment: Drug resistance, ratio of MIC for Staphylococcus aureus after 6 passages to MIC for Staphylococcus aureus during first exposure
Staphylococcus aureus [9] = experiment: Drug resistance, ratio of MIC for Staphylococcus aureus after 12 passages to MIC for Staphylococcus aureus during first exposure
Staphylococcus aureus [10] = experiment: Drug resistance, ratio of MIC for Staphylococcus aureus after 15 passages to MIC for Staphylococcus aureus during first exposure
Staphylococcus aureus [11] = experiment: Drug resistance, ratio of MIC for Staphylococcus aureus after 21 passages to MIC for Staphylococcus aureus during first exposure

Row | Structure (SMILES) | MIC (Staphylococcus aureus [1]) | MIC (Staphylococcus aureus [2]) | MIC (Staphylococcus aureus [3]) | MIC (Staphylococcus aureus [4]) | MIC (Staphylococcus aureus [5]) | MIC (Bacillus subtilis) | MIC (Enterococcus faecalis) | MIC (Enterococcus faecium) | MIC (Enterococcus gallinarum) | MIC [6] | FC (Staphylococcus aureus [7]) | Ratio (Staphylococcus aureus [8]) | Ratio (Staphylococcus aureus [9]) | Ratio (Staphylococcus aureus [10]) | Ratio (Staphylococcus aureus [11])
1 | CC(=O)NC[C@H]1CN(c2ccc(N3CCOCC3)c(F)c2)C(=O)O1 [LINEZOLID] | 1.56 µg/mL (≈ 4.62 µM) | 1.56 µg/mL (≈ 4.62 µM) | 3.13 µg/mL (≈ 9.28 µM) | 1.56 µg/mL (≈ 4.62 µM) | 1.56 µg/mL (≈ 4.62 µM) | 1.56 µg/mL (≈ 4.62 µM) | 1.56 µg/mL (≈ 4.62 µM) | 1.56 µg/mL (≈ 4.62 µM) | 1.56 µg/mL (≈ 4.62 µM) | 0.39 µg/mL (≈ 1.16 µM) | 0.864 |  |  |  | 
2 | CC1(C)S[C@@H]2[C@H](NC(=O)[C@H](N)c3ccc(O)cc3)C(=O)N2[C@H]1C(=O)O [AMOXICILLIN] |  |  |  |  |  |  |  |  |  |  |  | 10 | 30 | 250 | 250
